From US5834491A, “Bis(2-aminopyridine)s, preparation method therefor and use thereof for controlling parasitic infections” (priority 1994, dated 1998)
Structures can show the parent of a compound that is named as a salt. Where two headings read alike, the source gives them in different places.

How the values were obtained:
Babesia [1] = details: McColm 1984; cited from earlier work
Babesia [2] = details: cited from earlier work
Babesia [3] = details: cited from earlier work; remark: listed apart in the source
[4] = test system: biosynthesis of phosphatidylcholine; test: Specificity towards phosphatidylcholine biosynthesis relative to other macromolecules (radiolabelled precursor incorporation); assay type: cell-based; details: relative to nucleic acids, proteins, other phospholipids
Experimental: Verification of the mechanism of action is carried out on the various derivatives according to the invention by studying the specific interference with phospholipid biosynthesis and measuring the biosynthesis of the different biomolecules, nucleic acids, proteins and phospholipids, on the basis of the incorporation of radiolabelled precursors, [^3 H]hypoxanthine (see above), [^3 H]isoleucine and [^3 H]choline. The specificity in the precise realm of phospholipid metabolism is determined by comparison with the effect on the incorporation of [^3 H]ethanolamine into phosphatidylethanolamine (Ancelin M. L., Vialettes F. and Vial H. J., 1991, Anal. Biochem., 199, 203-209).

[5] = test system: Plasmodium vinckei, petteri or chabaudi; test: Antimalarial activity in vivo, infected mice, 4 days; set-up: species or system petteri or chabaudi (male Swiss mice); details: ip, I.P., twice daily for 4 consecutive days
Experimental: This activity is measured according to the test described by PETERS W. (Chemotherapy and Drug resistance in Malaria, 1970). A compound according to the invention is administered for 4 consecutive days to mice infected beforehand with malaria using Plasmodium vinckei, petteri or chabaudi.
The said compound is dissolved in 0.9% aqueous NaCl solution or, where appropriate, in 10% aqueous gum arabic solution. The preparations are thus administered intraperitoneally or subcutaneously to male Swiss mice of average weight 30 to 40 g which have been infected beforehand intravenously with Plasmodium petterei or P. chabaudi (10^6 infected cells). The compound is administered twice daily for 4 consecutive days, the first injection being performed 2 hours after infestation, and the second 10 hours after. The parasitaemia is determined by means of a smear on the day following the end of the treatment.
The results are collated in Table II, in the form of an ED50 (dose of compound administered in vivo capable of a 50% inhibition of the growth of the parasites).

Plasmodium falciparum = test: Antimalarial activity in vitro towards Plasmodium falciparum ([3H]hypoxanthine incorporation, infected human erythrocytes); assay type: cell-based; details: Erythrocyte, approximately 48 hours; for IC50 upper bound (active at tested concentration): Table I
Experimental: Evaluation of the antimalarial activity in vitro is carried out according to the method of DESJARDINS, CANFIELD, HATNES and CHULAY (Antimicrob. Agents Chemother., 1979, 16, 710-718). A compound according to the invention is brought into contact for approximately 48 hours with human erythrocytes infected with Plasmodium falciparum. When a radioactive nucleic acid precursor, hypoxanthine, is added to the preparation, only erythrocytes infected with Plasmodium and not affected by the said compound incorporate this precursor. […] The results are presented in Table I below, in the form of an IC50 (or ED50) (concentration of compound capable of inhibiting in vitro the growth of the parasites by 50%).
The derivatives according to the above examples are tested at three concentrations, 100, 33 and 10 nanomolar.

[6] = Semi-chronic toxicity in vivo; details: mouse, mice

Compound | resistance of Babesia (Babesia [1]) | results in vivo against Babesia (Babesia [2]) | activity in vitro against Babesia (Babesia [3]) | other results
CO[C@H]1/C=C/O[C@@]2(C)Oc3c(C)c(O)c4c(O)c(cc(O)c4c3C2=O)NC(=O)/C(C)=C\C=C\[C@H](C)[C@H](O)[C@@H](C)[C@@H](O)[C@@H](C)[C@H](OC(C)=O)[C@@H]1C [rifamycin] | increased resistance | – | – | –
CC[C@H]1OC(=O)C[C@@H](O)[C@H](C)[C@@H](O[C@@H]2O[C@H](C)[C@@H](O[C@H]3C[C@@](C)(O)[C@@H](O)[C@H](C)O3)[C@H](N(C)C)[C@H]2O)[C@@H](CC=O)C[C@@H](C)C(=O)/C=C/C(C)=C/[C@@H]1CO[C@@H]1O[C@H](C)[C@@H](O)[C@@H](OC)[C@H]1OC [tylosin] | increased resistance | – | – | –
O=C1C(O)=C(CCCCCCCCC2CCCCC2)C(=O)c2ccccc21 [menoctone] | – | without, however, giving good results in vivo | active in vitro | –
gramicidin D | increased resistance | – | – | –
Cc1ccn(CCCCCCCCCCCCn2ccc(C)cc2=N)c(=N)c1 [Example 1, 1,1'-(1,12-dodecanediyl)bis(4-methyl-2(1H)-pyridinimine) dihydrobromide] | – | – | – | specificity of action towards the biosynthesis of phosphatidylcholine, relative to the biosyntheses of the other macromolecules [4]: best specificity of action towards the biosynthesis of phosphatidylcholine; ED50 [5]: 1.2 mg/kg; IC50 upper bound (active at tested concentration) (Plasmodium falciparum; 33 nM, read-out: Plasmodium IC50 in vitro resp. at 33 nM): < 33 nM; IC50 upper bound (active at tested concentration) (Plasmodium falciparum; 100 nM, read-out: Plasmodium IC50 in vitro resp. 100 nM): < 100 nM; IC50 (Plasmodium falciparum; Table II): 0.5 nM; LD50 ([6]; ip, I.P., 2 injections daily for four days, read-out: Toxicity LD50 I.P.): 30 mg/kg; LD50 ([6]; po, P.O., semi-chronic, four days, read-out: Toxicity LD50 P.O.): 365 mg/kg
CN(C)C1C(=O)C(C(N)=O)=C(O)C2(O)C(=O)C3=C(O)c4c(O)cccc4C(C)(O)C3CC12 (centres unmarked) [tetracycline] | – | without, however, giving good results in vivo | active in vitro | –
